Data on three molecules can be found in US10688197B2, “Non-alcoholic fatty liver regulator 14-3-3 protein” (Korea University Research and Business Foundation, priority 2015, dated 2020).

One test concerns SREBP-1c protein. Kind of test: SREBP-1c protein expression by western blotting in HepG2 cells. The test is classed as cell-based. The note with it: HepG2, overexpression, 200 μM oleic acid 72 hours, FIG. 7D. The method, then: In addition, HepG2 cells were seeded in a 6-well plate at a density of 5×10^5 cells per each well, and then transfected with HA-14-3-3β DNA (1 μg) or HA-14-3-3γ DNA (1 μg) using an E-fection plus reagent (Lugen). A ratio of DNA to the E-fection plus reagent was 1:2, and this method was performed according to a manufacturer's manual. After transfection, the cells were treated with 200 μM of oleic acid (OA) for 72 hours, washed with ice-cold PBS, and lysed with 80 μl/well of a lysis buffer (150 mM NaCl, 1 mM EDTA, 1% Nonidet P-40, 5% glycerol, 25 mM tris-HCl, pH 7.5, protease inhibitor added), the lysed cells were centrifuged at 10,000×g and 4° C. for 10 minutes to extract proteins, and 30 μg of the proteins was separated on a 10% SDS-PAGE gel and identified using each of the antibodies (HA, SREBP-1c: Santa Cruz) by western blotting, and all antibodies were used in a ratio of 1:3000.

The test system of a further test is FAT/CD36 promoter. Kind of test: Chromatin immunoprecipitation (ChIP assay), binding of PPARγ2 to FAT/CD36 promoter in HepG2 cells. Type of test: cell-based. The note with it: overexpression, FIG. 7C upper side. On the procedure: In addition, for chromatin immunoprecipitation (ChIP), HepG2 cells were seeded in a 100 mm plate at a density of 4×10^6 cells per each well, and then transfected with Flag-PPARγ2 DNA (4 μg), mGST-14-3-3β DNA (4 μg) or mGST-14-3-3γ DNA (4 μg), and si-14-3-3β (20 μM, Santa Cruz) or si-14-3-3γ (20 μM, Santa Cruz) using an E-fection plus reagent (Lugen). A ratio of DNA to the E-fection plus reagent was 1:2, and this method was performed according to a manufacturer's manual. The corresponding cells were treated with 0.75% formaldehyde at room temperature for 15 minutes, glycine was added thereto, and the resulting cells were scraped into ice-cold PBS and centrifuged at 1,000×g and 4° C. for 3 minutes to remove a supernatant, pellets were dissolved with 400 μl of FA lysis buffer (50 mM HEPES, 150 mM NaCl, 2 mM EDTA pH 8.0, 1% Triton-X100, 0.1% NaDeoxycholate), and then lysed using a sonicator twice for 10 minutes at a high voltage under the following condition: lysis for 30 seconds and resting for 30 seconds. […]
In addition, the binding of PPARγ2 and a binding strength thereof according to the expression of 14-3-3β and 14-3-3γ were evaluated by ChIP assay using a PPAR response element (PPRE) known as a binding site of PPARγ2 present in the FAT/CD36 promoter. […]

Test [1] has as its target T1, binding between PPARγ2 and 14-3-3β (Homo sapiens, UniProt P37231).
T1 construct: expressed in transfected cells; host or cells: HEK-293T
T1 sequence (P37231 1-505): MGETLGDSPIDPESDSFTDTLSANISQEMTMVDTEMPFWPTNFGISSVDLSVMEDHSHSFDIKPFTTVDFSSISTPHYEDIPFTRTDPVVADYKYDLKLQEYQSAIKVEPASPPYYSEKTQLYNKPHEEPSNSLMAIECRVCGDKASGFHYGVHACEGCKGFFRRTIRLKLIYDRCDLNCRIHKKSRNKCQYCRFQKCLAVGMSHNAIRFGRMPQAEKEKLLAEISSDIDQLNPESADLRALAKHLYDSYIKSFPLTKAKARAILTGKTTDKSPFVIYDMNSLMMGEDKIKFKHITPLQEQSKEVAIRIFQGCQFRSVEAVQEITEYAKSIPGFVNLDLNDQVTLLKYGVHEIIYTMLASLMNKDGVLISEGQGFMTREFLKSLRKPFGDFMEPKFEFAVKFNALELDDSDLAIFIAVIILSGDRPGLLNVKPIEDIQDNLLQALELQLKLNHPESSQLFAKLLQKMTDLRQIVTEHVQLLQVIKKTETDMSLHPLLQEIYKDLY
T1 sequence (P31946 1-246 partner): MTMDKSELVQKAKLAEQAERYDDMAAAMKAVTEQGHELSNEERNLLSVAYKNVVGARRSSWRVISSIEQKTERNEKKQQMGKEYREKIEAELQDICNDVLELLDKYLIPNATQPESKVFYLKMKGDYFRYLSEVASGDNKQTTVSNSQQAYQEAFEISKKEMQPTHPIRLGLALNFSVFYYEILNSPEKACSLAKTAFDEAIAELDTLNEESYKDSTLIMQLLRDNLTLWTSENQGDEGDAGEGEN
Kind of test: GST-pull down assay, binding between PPARγ2 and 14-3-3β (HEK-293T). On the procedure: After transfection, […], washed with ice-cold PBS, and lysed using 500 μl/well of a lysis buffer (150 mM NaCl, 1 mM EDTA, 1% Nonidet P-40, 5% glycerol, 25 mM tris-HCl, pH 7.5, protease inhibitor added), and the lysed cells were centrifuged at 10,000×g and 4° C. for 10 minutes to extract proteins. Thereafter, 1,000 μg of the proteins was reacted with 20 μl of glutathione Sepharose 4B beads (GE Healthcare, Buckinghamshire, UK) for 6 hours, and then washing of the beads with 1 ml of ice-cold PBS was repeated 5 times, and the beads were boiled at 100° C. for 10 minutes, followed by 10% SDS-PAGE gel separation and western blotting. A ratio of GST antibodies (Santa Cruz) to Myc antibodies (self-production) was 1:3000. The detection of each protein was performed using West Pico ECL (Thermo scientific, Rockford, Ill.) and identified in a darkroom.
After transfection, […], washed with ice-cold PBS, and lysed using 500 μl/well of a lysis buffer (150 mM NaCl, 1 mM EDTA, 1% Nonidet P-40, 5% glycerol, 25 mM tris-HCl, pH 7.5, protease inhibitor added), and the lysed cells were centrifuged at 10,000×g and 4° C. for 10 minutes to extract proteins. […]

For “14-3-3β: 14-3-3 isoform protein overexpressed by DNA transfection; increases the transcriptional activity of PPARγ2 by binding to PPARγ2”, in the test on SREBP-1c protein, the “expression of the SREBP-1c protein” value is listed as “increased”. The “binding of PPARγ2 to the FAT/CD36 promoter” value in the test with FAT/CD36 promoter is “increased”.
Take “14-3-3γ: 14-3-3 isoform protein overexpressed by DNA transfection; decreases the transcriptional activity of PPARγ2; proposed active ingredient”: the “expression of the SREBP-1c protein” value with SREBP-1c protein is “reduced”. In addition, the “binding of PPARγ2 to the FAT/CD36 promoter” value in the test on FAT/CD36 promoter is recorded as “inhibited”. For the same molecule, the “binding between 14-3-3β and PPARγ2” value in test [1] (expression amount of 14-3-3γ increased (HA-14-3-3γ DNA 2 and 4 μg), FIG. 5A) is “reduced”.
As for `CCCCCCCC/C=C\CCCCCCCC(=O)O` [oleic acid], in test [1] (200 μM oleic acid 72 hours, FIG. 8A), the “binding between PPARγ2 and 14-3-3β” value is recorded as “increased”.
